# According to patent publication US12544395B2, “Combination compositions comprising a beta-lactamase inhibitor and uses thereof” (priority 2018, dated 2026):
# Key:
# Format in all cases: cell-based
# K. pneumoniae 304487 = assay: Broth microdilution MIC (strain enzymes: SHV-12,TEM-1)
# K. pneumoniae 319478 = assay: Broth microdilution MIC (strain enzymes: SHV-12, CTX-M3 and TEM-1)
# K. pneumoniae 329633 = assay: Broth microdilution MIC (strain enzymes: SHV-5, TEM-1)
# K. pneumoniae ESBL 7 #1 = assay: Broth microdilution MIC (strain enzymes: SHV-12, TEM-1)
# K. pneumoniae ESBL 8 #1 = assay: Broth microdilution MIC (strain enzymes: TEM-1, SHV-12)
structure (smiles),measurement,setting,value
"CCC(=O)N[C@H]1Cc2cccc(C(=O)O)c2OB1O [Compound 2, (R)-2-hydroxy-3-propionamido-3,4-dihydro-2H-benzo[e][1,2]oxaborinine-8-carboxylic acid]",MIC of cefdinir (CDR),K. pneumoniae 304487; with inhibitor at 1 μg/mL,1 µg/mL
same,MIC of cefixime (CFM),K. pneumoniae 304487; with inhibitor at 1 μg/mL,1 µg/mL
same,MIC of ceftibuten (CTB),K. pneumoniae 304487; with inhibitor at 1 μg/mL,0.25 µg/mL
same,MIC of cefalexin (LEX),K. pneumoniae 304487; with inhibitor at 2 μg/mL,1 µg/mL
same,MIC of cefdinir (CDR),K. pneumoniae 304487; with inhibitor at 2 μg/mL,1 µg/mL
same,MIC of cefixime (CFM),K. pneumoniae 304487; with inhibitor at 2 μg/mL,1 µg/mL
same,MIC of ceftibuten (CTB),K. pneumoniae 304487; with inhibitor at 2 μg/mL,0.25 µg/mL
same,MIC of cefalexin (LEX),K. pneumoniae 304487; with inhibitor at 4 μg/mL,2 µg/mL
same,MIC of cefdinir (CDR),K. pneumoniae 304487; with inhibitor at 4 μg/mL,2 µg/mL
same,MIC of cefixime (CFM),K. pneumoniae 304487; with inhibitor at 4 μg/mL,0.5 µg/mL
same,MIC of ceftibuten (CTB),K. pneumoniae 304487; with inhibitor at 4 μg/mL,0.25 µg/mL
same,MIC of cefalexin (LEX),K. pneumoniae 319478; with inhibitor at 1 μg/mL,4 µg/mL
same,MIC of cefdinir (CDR),K. pneumoniae 319478; with inhibitor at 1 μg/mL,4 µg/mL
same,MIC of cefixime (CFM),K. pneumoniae 319478; with inhibitor at 1 μg/mL,2 µg/mL
same,MIC of ceftibuten (CTB),K. pneumoniae 319478; with inhibitor at 1 μg/mL,0.125 µg/mL
same,MIC of cefalexin (LEX),K. pneumoniae 319478; with inhibitor at 2 μg/mL,2 µg/mL
same,MIC of cefdinir (CDR),K. pneumoniae 319478; with inhibitor at 2 μg/mL,2 µg/mL
same,MIC of cefixime (CFM),K. pneumoniae 319478; with inhibitor at 2 μg/mL,2 µg/mL
same,MIC of ceftibuten (CTB),K. pneumoniae 319478; with inhibitor at 2 μg/mL,0.25 µg/mL
same,MIC of cefalexin (LEX),K. pneumoniae 319478; with inhibitor at 4 μg/mL,2 µg/mL
same,MIC of cefdinir (CDR),K. pneumoniae 319478; with inhibitor at 4 μg/mL,2 µg/mL
same,MIC of cefixime (CFM),K. pneumoniae 319478; with inhibitor at 4 μg/mL,1 µg/mL
same,MIC of ceftibuten (CTB),K. pneumoniae 319478; with inhibitor at 4 μg/mL,0.125 µg/mL
same,MIC of cefalexin (LEX),K. pneumoniae 329633; with inhibitor at 1 μg/mL,0.25 µg/mL
same,MIC of cefdinir (CDR),K. pneumoniae 329633; with inhibitor at 1 μg/mL,0.25 µg/mL
same,MIC of cefixime (CFM),K. pneumoniae 329633; with inhibitor at 1 μg/mL,1 µg/mL
same,MIC of ceftibuten (CTB),K. pneumoniae 329633; with inhibitor at 1 μg/mL,0.06 µg/mL
same,MIC of cefalexin (LEX),K. pneumoniae 329633; with inhibitor at 2 μg/mL,0.25 µg/mL
same,MIC of cefdinir (CDR),K. pneumoniae 329633; with inhibitor at 2 μg/mL,0.25 µg/mL
same,MIC of cefixime (CFM),K. pneumoniae 329633; with inhibitor at 2 μg/mL,0.5 µg/mL
same,MIC of ceftibuten (CTB),K. pneumoniae 329633; with inhibitor at 2 μg/mL,0.06 µg/mL
same,MIC of cefalexin (LEX),K. pneumoniae 329633; with inhibitor at 4 μg/mL,1 µg/mL
same,MIC of cefdinir (CDR),K. pneumoniae 329633; with inhibitor at 4 μg/mL,1 µg/mL
same,MIC of cefixime (CFM),K. pneumoniae 329633; with inhibitor at 4 μg/mL,0.5 µg/mL
same,MIC of ceftibuten (CTB),K. pneumoniae 329633; with inhibitor at 4 μg/mL,0.06 µg/mL
same,MIC of cefalexin (LEX),K. pneumoniae ESBL 7 #1; with inhibitor at 1 μg/mL,0.5 µg/mL
same,MIC of cefdinir (CDR),K. pneumoniae ESBL 7 #1; with inhibitor at 1 μg/mL,0.5 µg/mL
same,MIC of cefixime (CFM),K. pneumoniae ESBL 7 #1; with inhibitor at 1 μg/mL,4 µg/mL
same,MIC of ceftibuten (CTB),K. pneumoniae ESBL 7 #1; with inhibitor at 1 μg/mL,0.25 µg/mL
same,MIC of cefalexin (LEX),K. pneumoniae ESBL 7 #1; with inhibitor at 2 μg/mL,1 µg/mL
same,MIC of cefdinir (CDR),K. pneumoniae ESBL 7 #1; with inhibitor at 2 μg/mL,1 µg/mL
same,MIC of cefixime (CFM),K. pneumoniae ESBL 7 #1; with inhibitor at 2 μg/mL,4 µg/mL
same,MIC of ceftibuten (CTB),K. pneumoniae ESBL 7 #1; with inhibitor at 2 μg/mL,0.25 µg/mL
same,MIC of cefalexin (LEX),K. pneumoniae ESBL 7 #1; with inhibitor at 4 μg/mL,0.5 µg/mL
same,MIC of cefdinir (CDR),K. pneumoniae ESBL 7 #1; with inhibitor at 4 μg/mL,0.5 µg/mL
same,MIC of cefixime (CFM),K. pneumoniae ESBL 7 #1; with inhibitor at 4 μg/mL,1 µg/mL
same,MIC of ceftibuten (CTB),K. pneumoniae ESBL 7 #1; with inhibitor at 4 μg/mL,0.125 µg/mL
same,MIC of cefalexin (LEX),K. pneumoniae ESBL 8 #1; with inhibitor at 1 μg/mL,0.25 µg/mL
same,MIC of cefdinir (CDR),K. pneumoniae ESBL 8 #1; with inhibitor at 1 μg/mL,0.25 µg/mL
same,MIC of cefixime (CFM),K. pneumoniae ESBL 8 #1; with inhibitor at 1 μg/mL,2 µg/mL
same,MIC of ceftibuten (CTB),K. pneumoniae ESBL 8 #1; with inhibitor at 1 μg/mL,0.25 µg/mL
same,MIC of cefalexin (LEX),K. pneumoniae ESBL 8 #1; with inhibitor at 2 μg/mL,0.125 µg/mL
same,MIC of cefdinir (CDR),K. pneumoniae ESBL 8 #1; with inhibitor at 2 μg/mL,0.125 µg/mL
same,MIC of cefixime (CFM),K. pneumoniae ESBL 8 #1; with inhibitor at 2 μg/mL,0.5 µg/mL
same,MIC of ceftibuten (CTB),K. pneumoniae ESBL 8 #1; with inhibitor at 2 μg/mL,0.125 µg/mL
